In US5908788A, “Method of monitoring patient compliance with medications prescriptions” (priority 1996, dated 1999):
Values joined by “and” are separate entries in the source; they are usually repeats but may differ in a detail not shown here. Equal values may be shown once.

What was measured:
[1] = Urine methadone concentration (FPIA) of maintenance patients, with calculated plasma methadone concentration and urinary-parameter normalized urine concentration
Text: The unadulterated sample is next analyzed for raw urine methadone concentration, preferably using fluorescence polarization immunoassay (FPIA) technology. In this regard an Abbott TDX or ADX Analyzer may be profitably employed. Other standard analytical methods may also be used such as chromatography or other types of immunoassay. […]
where cl is renal clearance (ml/min), u is raw urine methadone concentration (ng/ml), v is the volume of urine collected in time (ml/min) or otherwise known as the urine volume production rate, and p is the measured plasma methadone concentration at the midpoint of the collection period (ng/ml).
Combining all of the above considerations, plasma methadone concentrations can be calculated by substituting Equations (2, 8, 9 and 10) in Equation (3): [formula] where values of u, specific gravity, and pH are known from previous test results on a patient's spot urine sample. The equation may be more generally expressed as follows: […]
p=k3 ·u·(k1 SGF-k2)/k4
FIG. 6 was developed by utilizing data from 8300 urine samples from 150 methadone maintenance patients on controlled daily methadone dosages.
The parameters of a patient's urine, such as pH and specific gravity, vary from one day to the next dependant upon the type and quantities of foods and beverages ingested. Additionally, individuals metabolizes these substances, as well as methadone, at different rates. To account for these variations, a urinary-parameter normalized urine methadone concentration, nup, is calculated that adjusts measured raw urine methadone concentration, u, in accordance with a prescribed methadone dose, urine specific gravity, patient's current body weight (lbs) and urine pH. The relationship between u, pH, dose and specific gravity was empirically developed using nonlinear regression analysis. […]
nup =(k3 /DOSE)^k4 ·(k5 /pH)^k6 […]
Given this value, another set of prediction equations specifying the allowable range for the next measured nup for a particular patient, given a sample size of n, a mean nup for an individual patient and either the patient standard deviation or the population standard deviation (whichever is least), can be calculated as shown in Hahn and Meeker. If the measured value is within the acceptable statistical range, given a previously calculated mean and standard deviation, then it is accepted. If the value is too high or too low, this is marked on the urine drug screen under the column called Pred, as shown in clinical cases #'s 4 and 5, Tables F and G.

migraine = assay: Clinical cases: migraine in patients on methadone maintenance; assay type: in vivo, human
[2] = Renal excretion rate in timed urine aliquots of compliant control subjects; assay type: in vivo, human; conditions: as function of urine volume production rate, during a typical day
[3] = to deter illicit opioid use; past studies; cited from earlier work
[4] = Plasma methadone calculated from spot urine versus measured plasma methadone (FIG. 7)
[5] = in vivo
Text: To determine compliance with the prescribed medication dose, random urine samples are obtained from the patient and analyzed in accordance with the invention as described in FIG. 9. […] The raw urine medication concentration (u) is next converted to a normalized urine medication concentration (nu) as discussed below. Over time, a normalized urine medication concentration-daily medication dose relationship is derived for each individual patient, which can be compared to the relationship expected for that particular patient. Alternatively, by adjusting the normalized urine medication concentration relative to the urinary pharmacokinetic parameters for each medication, a urinary-parameter normalized urine medication concentration (nup) may be calculated and compared to that expected for an average patient to determine compliance with the patient's prescribe medication dose.
nu=u'=u·(v/v')=u·UVPRF=u·(k1
The relationships for any medication family between nu and the medication pharmacokinetic parameters are empirically developed using regression analysis.
nup (patient body weight/k3)·u·UVPRF (19)
Two methods of interpreting urine medication results for compliance monitoring have now been developed. The first and most primitive method is to simply establish, using data from controls and compliant patients, mean drug levels and the expected ranges (minimums and maximums) for the nup of each particular medication at each particular daily, total dose amount.

[6] = Urine opiate concentration (codeine, oxycodone), urinary-parameter normalized; assay type: in vivo, human
Description: (§1) Shown in FIG. 13 are mean nup values for codeine as a function of daily, total dose. […]. Her mean codeine level while stabilized on 90 mg of codeine qd, as shown on FIG. 13, should be 19,102 +/-3840 ng/ml.
patient three is a person requiring opioid medications for severe arachnoiditis following surgery in the lumber spine. They were prescribed oxycodone without acetaminophen since they are status post removal of one kidney because of renal carcinoma. Shown in Table K are their oxycodone levels (40 mg per day total dose) which are within acceptable limits of 800-1600 ng/ml.

[7] = Urine Coc level of patient on codeine; assay type: in vivo, human; conditions: Table J, patient four
Description: as §1

[8] = Table A, compliant patient, dose 60 mg/day, individual dates
[9] = Table A, compliant patient, dose 70 mg/day, individual dates
[10] = Table A, mean of 12 tests, 60-70 mg/day
[11] = Table B, patient one, dose 45 mg, individual dates
[12] = Table B, patient one, mean of 12 tests, 45 mg
[13] = Table C, patient two, mean of 12 tests, dose 40-100
[14] = Table D, patient two (barbiturates discontinued), dose 130
[15] = Table D, patient two, mean of 12 tests, dose 110-130
[16] = Table G, mean of 13 tests, dose 130
[17] = patient two, 130 mg per day methadone

## CCC(=O)C(CC(C)N(C)C)(c1ccccc1)c1ccccc1 (stereo not drawn) [methadone]
[1]; [8]
  nup, urinary-parameter normalized urine methadone concentration: 7448 ng/mL and 9473 ng/mL
  u, raw urine methadone concentration: 7049 ng/mL and 4935 ng/mL
[1]; [9]
  nup, urinary-parameter normalized urine methadone concentration: 6966 ng/mL and 7381 ng/mL and 10913 ng/mL and 7430 ng/mL and 7208 ng/mL and 6254 ng/mL and 5532 ng/mL and 7790 ng/mL and 5852 ng/mL and 6881 ng/mL
  u, raw urine methadone concentration: 6838 ng/mL and 6536 ng/mL and 5462 ng/mL and 5180 ng/mL and 7398 ng/mL and 5990 ng/mL and 4203 ng/mL and 8469 ng/mL and 3736 ng/mL and 5601 ng/mL
[1]; [10]
  nup, mean: 7427 ng/mL
  u, mean: 5950 ng/mL
[1]; [11]
  nup, urinary-parameter normalized urine methadone concentration: 21153 ng/mL and 25720 ng/mL and 22145 ng/mL and 32208 ng/mL and 10174 ng/mL and 13051 ng/mL and 15585 ng/mL and 17845 ng/mL and 7585 ng/mL and 10815 ng/mL and 20168 ng/mL and 18777 ng/mL
  u, raw urine methadone concentration: 1069 ng/mL and 1336 ng/mL and 2109 ng/mL and 1883 ng/mL and 646 ng/mL and 1246 ng/mL and 1285 ng/mL and 757 ng/mL and 4094 ng/mL and 1318 ng/mL and 3900 ng/mL and 915 ng/mL
[1]; [12]
  nup, mean: 17265 ng/mL
  u, mean: 1713 ng/mL
[1]; Table C, patient two, dose 40
  u, raw urine methadone concentration: 174 ng/mL and 296 ng/mL
[1]; Table C, patient two, dose 50
  nup, urinary-parameter normalized urine methadone concentration: 2924 ng/mL
  u, raw urine methadone concentration: 853 ng/mL
[1]; Table C, patient two, dose 65
  nup, urinary-parameter normalized urine methadone concentration: 1367 ng/mL
[1]; Table C, patient two, dose 80
  nup, urinary-parameter normalized urine methadone concentration: 1070 ng/mL
  u, raw urine methadone concentration: 1120 ng/mL
[1]; [13]
  nup, mean: 1709 ng/mL
  u, mean: 1456 ng/mL
[1]; [14]
  nup, urinary-parameter normalized urine methadone concentration: 7728 ng/mL and 5944 ng/mL and 5117 ng/mL
  u, raw urine methadone concentration: 4915 ng/mL and 6565 ng/mL and 9494 ng/mL
[1]; Table D, patient two, dose 110
  nup, urinary-parameter normalized urine methadone concentration: 6580 ng/mL and 6703 ng/mL and 10880 ng/mL and 6025 ng/mL
[1]; Table D, patient two, dose 120
  nup, urinary-parameter normalized urine methadone concentration: 8970 ng/mL and 6778 ng/mL and 8074 ng/mL and 11966 ng/mL and 6031 ng/mL
[1]; [15]
  nup, mean: 7236 ng/mL
  u, mean: 7036 ng/mL
[1]; Table F, case #4, dose 140
  Pred (flag: nup outside statistical range predicted for patient): High
[1]; Table F, mean of 11 tests, dose 120-140
  nup, mean: 5130 ng/mL
[1]; Table F, mean of 12 tests, dose 120-140
  u, mean: 8008 ng/mL
[1]; Table G, case #5, dose 130
  Pred (flag: nup outside statistical range predicted for patient): LOW and HIGH
[1]; [16]
  nup, mean: 8396 ng/mL
  u, mean: 10585 ng/mL
[1]; acceptably compliant methadone patients
  average population standard deviation of nup: about 3000
[1]; patient two, Tables C and D, after discontinuing barbiturate-containing compounds
  plasma methadone levels over time: increased
migraine; patient one, 36 months, 45 mg methadone
  migraine attacks during treatment: 2 migraine attacks
migraine; patient one, titration to 45 mg methadone
  frequency and severity of migraines: migraines slowly decayed in frequency and severity
migraine; patient one, transient decrease after vomiting
  plasma methadone level related to migraine attacks: below 80 ng/ml
migraine; [17]
  migraine response: migraines ceased completely
  plasma methadone level at which migraines ceased completely: above 135 ng/ml
[2]
  renal excretion rate (mg/min): relatively constant
[3]
  optimum/necessary (24-hour trough) plasma methadone concentration: 150 to 600 ng/mL
[4]; FIG. 7
  adjusted squared multiple R, estimated versus measured plasma methadone concentration: 0.987
[4]; FIG. 7, linear regression, intercept -1.25 (SE 11.495), F-ratio 810
  slope, estimated versus measured plasma methadone concentration: 0.970 (SE 0.034)

## Cc1nnc2n1-c1ccc(Cl)cc1C(c1ccccc1)=NC2 [alprazolam]
[5]; human
  Xanax level, mean: 4268 ng/mL
[5]
  SD of alprazolam normalized concentration, % of mean: ~15%
  SEE of nup = k*Dose: 210
  importance of urine pH for nup: not important

## Oc1ccc2c3c1O[C@H]1[C@@H](O)CC[C@@]4(O)[C@@H](C2)N(CC2CCC2)CC[C@]314 [nalbuphine]
migraine; patient two, self-administered IM
  control of migraine pain: failure

## COc1ccc2c3c1O[C@H]1C(=O)CC[C@@]4(O)[C@@H](C2)N(C)CC[C@]314 [oxycodone]
[6]; Table K, patient three, mean of 12 tests, 40 mg per day
  nup, Opi (oxycodone), mean: 1206 ng/mL
[6]; patient three, 40 mg per day total dose
  oxycodone levels, acceptable limits: 800 to 1600 ng/mL

## COc1ccc2c3c1O[C@H]1[C@@H](O)C=C[C@H]4[C@@H](C2)N(C)CC[C@@]341 [codeine]
[6]; FIG. 13, patient four stabilized on 90 mg of codeine qd
  mean codeine level (nup): 19,102 +/-3840 ng/ml
[6]; Table J, patient four, mean of 9 tests, 90 mg codeine qd
  Opi (nup, codeine), mean: 19102 ng/mL

## CN1C(=O)CN=C(c2ccccc2)c2cc(Cl)ccc21 [diazepam]
[5]
  SEE of nup = k*Dose: 806
  importance of urine pH for nup: not important
  nup per daily dose (coefficient of nup = k*Dose): 267(SE 16.9)

## COC(=O)[C@H]1[C@@H](OC(=O)c2ccccc2)C[C@@H]2CC[C@H]1N2C [Coc]
[7]
  Coc: 0
